Measurements: PubChem BioAssay (NCI)
Values joined by “and” are separate entries in the source; they are usually repeats but may differ in a detail not shown here. Equal entries are not always repeated.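 Grown in 96-well plates, cells were treated for 48 hours with each compound at five concentrations. Insufficient inhibition: endpoint recorded as highest concentration tested. GI50: concentration for 50% inhibition of growth. TGI is the concentration that stops growth completely.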

Assays:
Assay in all cases: NCI-60 cell line screen, 48 h
COLO 205 colon = test system: COLO 205 colon
DU-145 prostate = test system: DU-145 prostate
NCI-H226 lung = test system: NCI-H226 lung
NCI-H460 lung = test system: NCI-H460 lung
OVCAR-3 ovarian = test system: OVCAR-3 ovarian
RXF 393 renal = test system: RXF 393 renal
SN12C renal = test system: SN12C renal
SNB-75 CNS = test system: SNB-75 CNS
UACC-62 melanoma = test system: UACC-62 melanoma
UO-31 renal = test system: UO-31 renal

| Compound | GI50 (COLO 205 colon) | TGI (COLO 205 colon) | GI50 (DU-145 prostate) | TGI (DU-145 prostate) | GI50 (NCI-H226 lung) | TGI (NCI-H226 lung) | GI50 (NCI-H460 lung) | TGI (NCI-H460 lung) [µM] | GI50 (OVCAR-3 ovarian) | TGI (OVCAR-3 ovarian) | GI50 (RXF 393 renal) | TGI (RXF 393 renal) | GI50 (SN12C renal) | TGI (SN12C renal) [µM] | GI50 (SNB-75 CNS) | TGI (SNB-75 CNS) | GI50 (UACC-62 melanoma) | TGI (UACC-62 melanoma) | GI50 (UO-31 renal) | TGI (UO-31 renal) |
| --- | --- | --- | --- | --- | --- | --- | --- | --- | --- | --- | --- | --- | --- | --- | --- | --- | --- | --- | --- | --- |
| Cn1cc(C2=C(c3c[nH]c4ccccc34)C(=O)NC2=O)c2ccccc21 | 1250 nM | > 25 µM | 2370 nM | > 25 µM | 1.99 µM | > 25 µM | 732 nM | > 25 | 940 nM | > 11.9 µM | 198 nM | 1.96 µM | 1320 nM | > 25 | 71 nM | > 7.62 µM | 1590 nM | > 25 µM | 334 nM | > 25 µM |
| O=C(NCCCc1cn[nH]c1)c1ccc(-c2ccncc2)c(C#Cc2ccc(F)cc2)c1 | < 10 nM | 46.1 µM | < 10 nM | > 100 µM | 6.2 µM | 51.3 µM | 145 nM | 41.9 | 6270 nM | > 100 µM | 3580 nM | 19.8 µM | < 10 nM | > 100 | 8820 nM | > 100 µM | 16500 nM | > 70.1 µM | 3400 nM | > 67.2 µM |
| CC(C)N(Cc1ccc(CN(C(=O)CCl)C(C)C)cc1)C(=O)CCl | 2160 nM | 4.36 µM | 3230 nM | 12.4 µM | 3.25 µM | 9.44 µM | 1980 nM | 4.74 | 1690 nM | 3.22 µM | 1330 nM | 2.85 µM | 1490 nM | 3.71 | 1290 nM | 2.59 µM | 1040 nM | 2.97 µM | 1760 nM | 3.21 µM |
| Cc1ccc([N+](=O)[O-])c2c(NCCNC(=O)c3cc(C(=O)NCCNc4ccnc5c(C)ccc([N+](=O)[O-])c45)n(C)n3)ccnc12 | – | > 100 µM | – | > 100 µM | – | > 100 µM | – | > 100 | – | > 100 µM | – | > 100 µM | – | > 70.9 | – | > 87.3 µM | – | > 83 µM | – | > 100 µM |
| O=C(O)/C(Cc1ccnc2ccccc12)=N\O | – | > 100 µM | – | > 100 µM | – | > 100 µM | – | > 100 | – | > 100 µM | – | > 100 µM | – | > 100 | – | > 100 µM | – | > 100 µM | – | > 100 µM |
| Cc1cc(C)c(C#N)c(Sc2nc(C)c([N+](=O)[O-])c(C)c2C#N)n1 | 2580 nM | 5.55 µM | 2950 nM | 11.1 µM | 2.99 µM | 10.5 µM | 3630 nM | 16.2 | 2010 nM | 3.88 µM | 2160 nM | 5.55 µM | 2260 nM | 5.67 | 3290 nM | 21.8 µM | 2960 nM | 11.5 µM | 1810 nM | 4.01 µM |
| O=C(O)/C(Cc1cn[nH]n1)=N\O | – | > 100 µM | – | > 100 µM | – | > 100 µM | – | > 100 | – | > 100 µM | – | > 100 µM | – | > 100 | – | > 100 µM | – | > 100 µM | – | > 100 µM |
| CNCCCNc1nc2ccccc2c2c(=O)c3cc(OC)ccc3sc12 | 2060 nM | 4.4 µM | 1780 nM | 3.23 µM | 1.8 µM | 3.9 µM | 1670 nM | 3.13 | 1820 nM | 3.43 µM | 1560 nM | 3.07 µM | 1670 nM | 3.28 | 1690 nM | 3.39 µM | 1760 nM | 3.27 µM | 1420 nM | 2.75 µM |
| COc1ccc(-c2cc3c(C)nc(N)nc3n(C3CCC(OCCO)CC3)c2=O)cn1 (stereo not given) | 88.2 nM and 137 nM | 0.874 µM and 1.14 µM | 153 nM and 106 nM | > 10 µM and 8.28 µM | 0.0742 µM and 0.105 µM | > 2.19 µM and 0.946 µM | 62.9 nM and 47.5 nM | > 35.3 | 61.4 nM and 39.5 nM | 0.486 µM and 0.427 µM | 40.3 nM and 46.7 nM | 0.289 µM and 0.309 µM | 79 nM and 75.8 nM | > 100 | 15.1 nM and < 11.7 nM | 0.137 µM and 0.177 µM | 20 nM and 46 nM | 0.165 µM and 0.365 µM | 26.5 nM and 16.9 nM | 0.378 µM and 0.492 µM |
| CN1Cc2ccccc2/C=C\c2ccccc21 | – | > 100 µM | – | > 100 µM | – | > 100 µM | – | > 100 | – | > 100 µM | – | > 100 µM | – | > 100 | – | > 100 µM | – | > 100 µM | – | > 100 µM |
| O=[N+]([O-])c1ccc(Cl)c(CNc2ncnc3c2ncn3C2CCCCO2)c1 (stereo not given) | – | > 100 µM | – | > 100 µM | – | 86.6 µM | – | 52.2 | – | > 100 µM | – | 42.6 µM | – | > 100 | – | > 100 µM | – | > 100 µM | – | > 100 µM |
| Cc1c(C#N)cccc1[C@@H](C)Nc1nnc(C)c2cnc(N3CCOCC3)cc12 | 22400 nM | 60.8 µM | 27700 nM | > 100 µM | 23.2 µM | > 100 µM | 27700 nM | > 100 | 14500 nM | 66.1 µM | 11300 nM | > 100 µM | 17900 nM | > 100 | 17700 nM | > 100 µM | 30500 nM | > 100 µM | 15100 nM | > 100 µM |
| N#CC1=C(N)Oc2c(ccc3ccccc23)C1c1cc(=O)oc2ccc(Cl)cc12 (stereo not given) | 1950 nM | 8.27 µM | 4110 nM | > 100 µM | 26 µM | 81.6 µM | 466 nM | 14 | 386 nM | 12.3 µM | 217 nM | 1.93 µM | 2590 nM | 45.4 | 2160 nM | > 100 µM | 470 nM | 41.1 µM | 1820 nM | > 100 µM |
| C1CN(c2nnc(N3CCC3)nn2)C1 | – | > 92.4 µM | – | > 100 µM | – | > 100 µM | – | > 100 | – | > 100 µM | – | > 74.5 µM | – | 65.8 | – | > 46.4 µM | – | 38.5 µM | – | > 100 µM |
| CC(=O)N1CCN(CCNC(=O)n2cc(-c3ccncc3)c(-c3cc(O)cc(Cl)c3)n2)CC1 | 6260 nM | 20.9 µM | 24300 nM | > 100 µM | 16.7 µM | 40.5 µM | 10100 nM | 26.3 | 17300 nM | 46.5 µM | 3670 nM | 17.7 µM | 13700 nM | 46.2 | 13500 nM | 41.4 µM | 2950 nM | 16.2 µM | 8950 nM | 22.5 µM |
